Experimental findings from patent US20250129103A1, “METHODS FOR TREATMENT OF CANCER” (Frontier Medicines Corporation, priority 2022, published 2025) are described below.

What is called pIC50 is −log10 of the IC50, conventionally taken in molar units.

pIC50: −log10 of the molar value.

The target in the assay is KRAS G12C (GMPPNP-loaded) and cRAF (Ras-binding domain) interaction (Homo sapiens (Human), UniProt P01116, C118S/C51S/C80L/G12C). Put plainly: Inhibition of KRAS G12C and cRAF binding (AlphaScreen). Particulars: KRAS G12C loaded with GMPPNP, cRaf RBD, 2 hours preincubation; read-out: Raf-1 RBD K-Ras IC50. On the procedure: Compounds were diluted in 100% DMSO and each compound concentration was spotted at 200 nl/well onto low volume, white 384 well plates. […] KRAS G12C was preloaded with the GTP analogue Guanosine 5′-[β,γ-imido]triphosphate (GMPPNP). The KRAS G12C was diluted in 25 mM Hepes, pH 7.4, 150 mM NaCl, 5 mM MgCl2, 0.01% TritonX-100 and 10 μM GMPPNP and added at 10 ul/well to compound-spotted plates resulting in a DMSO concentration of 2%. Plates were incubated for 2 hours. A mixture of RBD and the AlphaScreen streptavidin donor and glutathione acceptor beads diluted in 25 mM Hepes, pH 7.4, 150 mM NaCl, 5 mM MgCl2, 0.01% TritonX-100 and 2% DMSO was then added at 10 ul/well and incubated for 60-90 minutes before the samples were read for emission at 570 nm after excitation of the donor beads at 680 nm. All incubations were performed at room temperature. The final top compound concentration was 50 μM with 1:3 titrations for 10-point dose response curves. […] IC50S were determined using nonlinear regression fit of [inhibitor] vs. response (4 parameters). […]
Sequence of KRAS G12C (GMPPNP-loaded) and cRAF (Ras-binding domain) interaction (P01116 other isoform, or with tags, fused parts or gaps G12C/C51S/C80L/C118S): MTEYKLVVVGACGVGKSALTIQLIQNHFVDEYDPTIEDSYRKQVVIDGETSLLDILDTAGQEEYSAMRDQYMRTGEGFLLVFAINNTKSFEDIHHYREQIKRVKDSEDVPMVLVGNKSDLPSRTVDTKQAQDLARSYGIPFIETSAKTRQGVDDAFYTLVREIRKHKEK
Take `N#CC[C@H]1CN(c2nc(OCC34CCCN3CCC4)nc3c2CCN(c2cccc4cccc(Cl)c24)C3)CCN1C(=O)/C=C/c1cnccn1` [Compound 39]: the pIC50 was < 6.30. In the case of `Cn1cnc(/C=C/C(=O)N2CCN(c3nc(OC[C@@]45CCCN4C[C@H](F)C5)nc4c(F)c(-c5cccc6cccc(Cl)c56)ncc34)C[C@@H]2CC#N)n1` [Compound 40] it was < 6.30; in that of `CC(F)(F)c1noc(/C=C/C(=O)N2CCN(c3nc(OCC45CCCN4CCC5)nc4c3CCN(c3cccc5cccc(Cl)c35)C4)C[C@@H]2CC#N)n1` [Compound 41], 7.00 to 8.00; in that of `Cn1cnc(/C=C/C(=O)N2CCN(c3nc(OC[C@@]45CCCN4C[C@H](F)C5)nc4c(F)c(-c5cccc6cccc(Cl)c56)ncc34)C[C@@H]2CC#N)c1` [Compound 42], < 6.30. On to `Cn1cnc(/C=C/C(=O)N2CCN(c3nc(OC[C@@]45CCCN4C[C@H](F)C5)nc4c3CCN(c3cccc5cccc(Cl)c35)C4)C[C@@H]2CC#N)n1` [Compound 43], for which the pIC50 is < 6.30. Regarding `Cn1cnc(/C=C/C(=O)N2CCN(c3nc(OC[C@@]45CCCN4C[C@H](F)C5)nc4c3CCN(c3cccc5cccc(Cl)c35)C4)C[C@@H]2CC#N)c1` [Compound 44], the pIC50 is 6.30 to 7.00. In the case of `CC1(c2noc(/C=C/C(=O)N3CCN(c4nc(OCC56CCCN5CCC6)nc5c4CCN(c4cccc6cccc(Cl)c46)C5)C[C@@H]3CC#N)n2)CC1` [Compound 45] it was 7.00 to 8.00; in that of `CC1(c2noc(/C=C/C(=O)N3CCN(c4nc(OC[C@@]56CCCN5C[C@H](F)C6)nc5c4CCN(c4cccc6cccc(Cl)c46)C5)C[C@@H]3CC#N)n2)CC1` [Compound 46], 7.00 to 8.00. In the case of `N#CC[C@H]1CN(c2nc(OC[C@@]34CCCN3C[C@H](F)C4)nc3c(F)c(-c4nc(N)cc5cccc(Cl)c45)ncc23)CCN1C(=O)/C=C/CN1CCOCC1` [Compound 59] it was > 8.00; in that of `N#CC[C@H]1CN(c2nc(OCC34CCCN3CCC4)nc3c2CCN(c2cccc4cccc(Cl)c24)C3)CCN1C(=O)/C=C/CN1C[C@H]2C[C@@H]1CO2` [Compound 63], > 8.00; in that of `CCc1c(F)ccc2cccc(-c3ncc4c(N5CCN(C(=O)/C=C/c6cc(C)nc(C)n6)[C@@H](CC#N)C5)nc(OC[C@@]56CCCN5C[C@H](F)C6)nc4c3F)c12` [Compound 98, 2-((S)-1-((E)-3-(2,6-dimethylpyrimidin-4-yl)acryloyl)-4-(7-(8-ethyl-7-fluoronaphthalen-1-yl)-8-fluoro-2-(((2R,7aS)-2-fluorotetrahydro-1H-pyrrolizin-7a(5H)-yl)methoxy)pyrido[4,3-d]pyrimidin-4-yl)piperazin-2-yl)acetonitrile], > 8.00. `Cc1c(F)ccc2cccc(-c3ncc4c(N5CCN(C(=O)/C=C/CN6[C@@H]7CC[C@H]6COC7)[C@@H](CC#N)C5)nc(OC[C@@]56CCCN5C[C@H](F)C6)nc4c3F)c12` [Compound 106, 2-((S)-1-((E)-4-((1R,5S)-3-oxa-8-azabicyclo[3.2.1]octan-8-yl)but-2-enoyl)-4-(8-fluoro-7-(7-fluoro-8-methylnaphthalen-1-yl)-2-(((2R,7aS)-2-fluorotetrahydro-1H-pyrrolizin-7a(5H)-yl)methoxy)pyrido[4,3-d]pyrimidin-4-yl)piperazin-2-yl)acetonitrile]: the pIC50 is > 8.00.

As for `CC1(/C=C/C(=O)N2CCN(c3nc(OCC45CCCN4CCC5)nc4c3CCN(c3cccc5cccc(Cl)c35)C4)C[C@@H]2CC#N)COC1` [Compound 116], the pIC50 was < 6.30. As for `Cn1nnc(/C=C/C(=O)N2CCN(c3nc(OCC45CCCN4CCC5)nc4c3CCN(c3cccc5cccc(Cl)c35)C4)C[C@@H]2CC#N)n1` [Compound 119], the pIC50 was < 6.30. For `CC(C)c1noc(/C=C/C(=O)N2CCN(c3nc(OC[C@@]45CCCN4C[C@H](F)C5)nc4c(F)c(-c5cccc6cccc(Cl)c56)ncc34)C[C@@H]2CC#N)n1` [Compound 121] the value was 6.30 to 7.00; for `CC(C)c1noc(/C=C/C(=O)N2CCN(c3nc(OC[C@@]45CCCN4C[C@H](F)C5)nc4c3CCN(c3cccc5cccc(Cl)c35)C4)C[C@@H]2CC#N)n1` [Compound 125], 7.00 to 8.00. In the case of `CC(C)c1noc(/C=C/C(=O)N2CCN(c3nc(OCC45CCCN4CCC5)nc4c(F)c(-c5cccc6ccc(F)c(Cl)c56)ncc34)C[C@@H]2CC#N)n1` [Compound 129] it was 6.30 to 7.00. For `C[C@@H](F)c1noc(/C=C/C(=O)N2CCN(c3nc(OC[C@@]45CCCN4C[C@H](F)C5)nc4c(F)c(-c5cccc6cccc(Cl)c56)ncc34)C[C@@H]2CC#N)n1` [Compound 130] the value was 7.00 to 8.00; for `CC(C)c1noc(/C=C/C(=O)N2CCN(c3nc(OC[C@@]45CCCN4C[C@H](F)C5)nc4c(F)c(-c5cccc6ccc(F)c(Cl)c56)ncc34)C[C@@H]2CC#N)n1` [Compound 132], 7.00 to 8.00; for `CC(C)c1noc(/C=C/C(=O)N2CCN(c3nc(OC[C@]45CCCN4C[C@H](F)C5)nc4c(F)c(-c5cccc6ccc(F)c(Cl)c56)ncc34)C[C@@H]2CC#N)n1` [Compound 133], 7.00 to 8.00. For the compound `CC(C)c1noc(/C=C/C(=O)N2CCN(c3nc(OC[C@@]45CCCN4C[C@H](F)C5)nc4c(F)c(-c5nc(N)cc6cccc(F)c56)ncc34)C[C@@H]2CC#N)n1` [Compound 134], the pIC50 was 7.00 to 8.00. With `C[C@H](F)c1noc(/C=C/C(=O)N2CCN(c3nc(OC[C@@]45CCCN4C[C@H](F)C5)nc4c(F)c(-c5cccc6cccc(Cl)c56)ncc34)C[C@@H]2CC#N)n1` [Compound 137], the pIC50 is 7.00 to 8.00.

As to `CC(C)c1noc(/C=C/C(=O)N2CCN(c3nc(OCC45CCCN4CCC5)nc4c3CCN(c3ccccc3C(F)F)C4)C[C@@H]2CC#N)n1` [Compound 144], the pIC50 was < 6.30. In the case of `N#CC[C@H]1CN(c2nc(OCC34CCCN3CCC4)nc3c2CCN(c2cccc4cccc(Cl)c24)C3)CCN1C(=O)/C=C/CCN1CCOCC1` [Compound 153] it was 7.00 to 8.00. Turning to `N#CC[C@H]1CN(c2nc(OCC34CCCN3CCC4)nc3c2CCN(c2cccc4cccc(Cl)c24)C3)CCN1C(=O)/C=C/CN1CCOC2CC21` (some centres unmarked) [Compound 164], the pIC50 is 7.00 to 8.00. As to `N#CC[C@H]1CN(c2nc(OCC34CCCN3CCC4)nc3c2CCN(c2cccc4cccc(Cl)c24)C3)CCN1C(=O)/C=C/CN1CC2CC(C1)O2` [Compound 166], the pIC50 was > 8.00. `N#CC[C@H]1CN(c2nc(OCC34CCCN3CCC4)nc3c2CCN(c2cccc4cccc(Cl)c24)C3)CCN1C(=O)/C=C/CN1CC2CCC(C1)O2` [Compound 167]: the pIC50 is > 8.00. In the case of `CO[C@@H]1CCN(C/C=C/C(=O)N2CCN(c3nc(OCC45CCCN4CCC5)nc4c3CCN(c3cccc5cccc(Cl)c35)C4)C[C@@H]2CC#N)C1` [Compound 173] it was > 8.00; in that of `N#CC[C@H]1CN(c2nc(OCC34CCCN3CCC4)nc3c2CCN(c2cccc4cccc(Cl)c24)C3)CCN1C(=O)/C=C/CN1CC[C@H](F)C1` [Compound 174], > 8.00. Regarding `N#CC[C@H]1CN(c2nc(OCC34CCCN3CCC4)nc3c2CCN(c2cccc4cccc(Cl)c24)C3)CCN1C(=O)/C=C/CN1CC[C@@H](F)C1` [Compound 175], the pIC50 is > 8.00. In the case of `N#CC[C@H]1CN(c2nc(OCC34CCCN3CCC4)nc3c2CCN(c2cccc4cccc(Cl)c24)C3)CCN1C(=O)/C=C/CN1CCC(F)(F)C1` [Compound 176] it was 7.00 to 8.00; in that of `N#CC[C@H]1CN(c2nc(OCC34CCCN3CCC4)nc3c2CCN(c2cccc4cccc(Cl)c24)C3)CCN1C(=O)/C=C/CN1CC(F)(F)C1` [Compound 177], 7.00 to 8.00. For `N#CC[C@H]1CN(c2nc(OCC34CCCN3CCC4)nc3c2CCN(c2cccc4cccc(Cl)c24)C3)CCN1C(=O)/C=C/CN1CCCS1(=O)=O` [Compound 178] the value was 6.30 to 7.00; for `N#CC[C@H]1CN(c2nc(OCC34CCCN3CCC4)nc3c(F)c(-c4cccc5ccc(F)c(Cl)c45)ncc23)CCN1C(=O)/C=C/CN1CCOCC1` [Compound 179], > 8.00. In the case of `N#CC[C@H]1CN(c2nc(OCC34CCCN3CCC4)nc3c(F)c(-c4cccc5cccc(Cl)c45)ncc23)CCN1C(=O)/C=C/CN1C[C@@H]2C[C@H]1CO2` [Compound 184] it was > 8.00; in that of `N#CC[C@H]1CN(c2nc(OCC34CCCN3CCC4)nc3c(F)c(-c4cccc5cccc(Cl)c45)ncc23)CCN1C(=O)/C=C/CN1C[C@H]2C[C@@H]1CO2` [Compound 185], > 8.00; in that of `N#CC[C@H]1CN(c2nc(OCC34CCCN3CCC4)nc3c2CCN(c2cccc4cccc(Cl)c24)C3)CCN1C(=O)/C=C/CN1CC2(COC2)C1` [Compound 194], > 8.00. As to `C[C@@H]1CN(C/C=C/C(=O)N2CCN(c3nc(OCC45CCCN4CCC5)nc4c3CCN(c3cccc5cccc(Cl)c35)C4)C[C@@H]2CC#N)C[C@H](C)O1` [Compound 196], the pIC50 is 7.00 to 8.00.

In the case of `C[C@@H]1CN(C/C=C/C(=O)N2CCN(c3nc(OCC45CCCN4CCC5)nc4c3CCN(c3cccc5cccc(Cl)c35)C4)C[C@@H]2CC#N)C[C@@H](C)O1` [Compound 197], the pIC50 was 7.00 to 8.00. For `C[C@H]1CN(C/C=C/C(=O)N2CCN(c3nc(OCC45CCCN4CCC5)nc4c3CCN(c3cccc5cccc(Cl)c35)C4)C[C@@H]2CC#N)C[C@H](C)O1` [Compound 198] the value was > 8.00; for `N#CC[C@H]1CN(c2nc(OCC34CCCN3CCC4)nc3c2CCN(c2cccc4cccc(Cl)c24)C3)CCN1C(=O)/C=C/CN1C2COCC1C2` [Compound 199], > 8.00.
